Source: paper PMC12888861, “Antibacterial activity of enmetazobactam against Acinetobacter spp.: a molecular dissection of mechanism of action and resistance determinants” (Antimicrobial Agents and Chemotherapy, 2025)
Read-outs that look alike come from different tables or passages of the source.

Test system: A. non-baumannii isolates (n = 87)
Assay: MIC, broth microdilution (EUCAST), A. non-baumannii isolates
Format: cell-based, Acinetobacter spp. (non-baumannii)
Conditions: for MIC: in combinations ETZ fixed at 8 mg/L
From the text: The bacterial strains used in this study comprised 208 clinical isolates from the Spanish National Acinetobacter spp. 2020 Multicenter Collection, which was previously characterized in detail by our research group, including whole-genome sequencing, phylogenetics studies, clonal dynamics, and resistance mechanisms ([2], [29]). Additionally, a collection of A. baumannii ATCC 17978 transformants coding the blaOXA-23, blaOXA-24/40, blaOXA-51, blaOXA-58, blaOXA-143, and blaOXA-201 genes, previously constructed and described by our group ([30]), was used to determine the activity of enmetazobactam against strains carrying the main CHDLs of A. baumannii.
The antimicrobial susceptibility of the 208 Acinetobacter spp. isolates was assessed using the broth microdilution method, as described in the European Committee on Antimicrobial Susceptibility Testing (EUCAST) v.15 guidelines (http://www.eucast.org/clinical_breakpoints). […] MICs for enmetazobactam alone were assessed as well. […] Subsequently, MIC testing was also conducted with a collection of A. baumannii ATCC 17978 transformants expressing clinically relevant OXA-like carbapenemase genes.
The A. baumannii ATCC 19606 strain was used as the reference strain in all susceptibility experiments, in duplicate assays. Antibiotics were purchased from Sigma-Aldrich, except enmetazobactam and durlobactam, which were obtained from Advanz Pharma and MedChemExpress, respectively.

[1] = Acinetobacter, A. non-baumannii isolates (n=87), ETZ fixed 8 mg/L in combinations
[2] = […], ETZ fixed 8 mg/L in combinations

CO/N=C(\C(=O)N[C@@H]1C(=O)N2C(C(=O)[O-])=C(C[N+]3(C)CCCC3)CS[C@H]12)c1csc(N)n1 [cefepime]
MIC distribution 0.12: 1.1
MIC (Acinetobacter baylyi, isolate NO-Ab27, Acinetobacter baylyi, read-out: MIC): 0.5 µg/mL
MIC (Acinetobacter beijerinckii, isolate NO-Ab122, Acinetobacter beijerinckii, read-out: MIC): 2 µg/mL
MIC (Acinetobacter bereziniae, isolate NO-Ab70, Acinetobacter bereziniae, read-out: MIC): 1 µg/mL
MIC (Acinetobacter bereziniae, isolate NO-Ab84, Acinetobacter bereziniae, read-out: MIC): 1 µg/mL
MIC (Acinetobacter bereziniae, isolate NO-Ab104, Acinetobacter bereziniae, read-out: MIC): 0.5 µg/mL
MIC (Acinetobacter bereziniae, isolate NO-Ab114, Acinetobacter bereziniae, read-out: MIC): 1 µg/mL
MIC (Acinetobacter bereziniae, isolate NO-Ab115, Acinetobacter bereziniae, read-out: MIC): 1 µg/mL
MIC (Acinetobacter bereziniae, isolate NO-Ab116, Acinetobacter bereziniae, read-out: MIC): 1 µg/mL
MIC (Acinetobacter bereziniae, isolate NO-Ab117, Acinetobacter bereziniae, read-out: MIC): 4 µg/mL
MIC (Acinetobacter bereziniae, isolate NO-Ab129, Acinetobacter bereziniae, read-out: MIC): 1 µg/mL
MIC (Acinetobacter bereziniae, isolate NO-Ab156, Acinetobacter bereziniae, read-out: MIC): 1 µg/mL
MIC (Acinetobacter calcoaceticus, isolate NO-Ab85, Acinetobacter calcoaceticus, read-out: MIC): 4 µg/mL
MIC (Acinetobacter calcoaceticus, isolate NO-Ab94, Acinetobacter calcoaceticus, read-out: MIC): 2 µg/mL
MIC (Acinetobacter calcoaceticus, isolate NO-Ab108, Acinetobacter calcoaceticus, read-out: MIC): 4 µg/mL
MIC (Acinetobacter calcoaceticus, isolate NO-Ab161, Acinetobacter calcoaceticus, read-out: MIC): 4 µg/mL
MIC (Acinetobacter calcoaceticus, isolate NO-Ab198, Acinetobacter calcoaceticus, read-out: MIC): 4 µg/mL
MIC (Acinetobacter calcoaceticus, isolate NO-Ab205, Acinetobacter calcoaceticus, read-out: MIC): 4 µg/mL
MIC (Acinetobacter calcoaceticus, isolate NO-Ab211, Acinetobacter calcoaceticus, read-out: MIC): 2 µg/mL
MIC (Acinetobacter courvalinii, isolate NO-Ab216, Acinetobacter courvalinii, read-out: MIC): 1 µg/mL
MIC (Acinetobacter dispersus, isolate NO-Ab2, Acinetobacter dispersus, read-out: MIC): 0.5 µg/mL
MIC (Acinetobacter guillouiae, isolate NO-Ab69, Acinetobacter guillouiae, read-out: MIC): 2 µg/mL
MIC (Acinetobacter guillouiae, isolate NO-Ab74, Acinetobacter guillouiae, read-out: MIC): 2 µg/mL
MIC (Acinetobacter haemolyticus, isolate NO-Ab92, Acinetobacter haemolyticus): 2 µg/mL
MIC (Acinetobacter haemolyticus, isolate NO-Ab177, Acinetobacter haemolyticus): 1 µg/mL
MIC (Acinetobacter haemolyticus, isolate NO-Ab217, Acinetobacter haemolyticus): 2 µg/mL
MIC (Acinetobacter johnsonii, isolate NO-Ab101, Acinetobacter johnsonii, read-out: MIC): 4 µg/mL
MIC (Acinetobacter junii, isolate NO-Ab76, Acinetobacter junii, read-out: MIC): 0.5 µg/mL
MIC (Acinetobacter junii, isolate NO-Ab77, Acinetobacter junii, OXA-24/40, read-out: MIC): 1 µg/mL
MIC (Acinetobacter lactucae, isolate NO-Ab60, Acinetobacter dijkshoorniae, read-out: MIC): 2 µg/mL
MIC (Acinetobacter lactucae, isolate NO-Ab63, Acinetobacter dijkshoorniae, read-out: MIC): 2 µg/mL
MIC (Acinetobacter lactucae, isolate NO-Ab65, Acinetobacter dijkshoorniae, read-out: MIC): 2 µg/mL
MIC (Acinetobacter lactucae, isolate NO-Ab86, Acinetobacter dijkshoorniae, read-out: MIC): 1 µg/mL
MIC (Acinetobacter lactucae, isolate NO-Ab88, Acinetobacter dijkshoorniae, read-out: MIC): 2 µg/mL
MIC (Acinetobacter lactucae, isolate NO-Ab91, Acinetobacter dijkshoorniae, read-out: MIC): 2 µg/mL
MIC (Acinetobacter lactucae, isolate NO-Ab121, Acinetobacter dijkshoorniae, read-out: MIC): 4 µg/mL
MIC (Acinetobacter lactucae, isolate NO-Ab125, Acinetobacter dijkshoorniae, read-out: MIC): 2 µg/mL
MIC (Acinetobacter lactucae, isolate NO-Ab160, Acinetobacter dijkshoorniae, read-out: MIC): 0.5 µg/mL
MIC (Acinetobacter nosocomialis, isolate NO-Ab43, Acinetobacter nosocomialis, read-out: MIC): 2 µg/mL
MIC (Acinetobacter nosocomialis, isolate NO-Ab68, Acinetobacter nosocomialis, OXA-24/40, read-out: MIC): 4 µg/mL
MIC (Acinetobacter nosocomialis, isolate NO-Ab98, Acinetobacter nosocomialis, read-out: MIC): 2 µg/mL
MIC (Acinetobacter nosocomialis, isolate NO-Ab208, Acinetobacter nosocomialis, read-out: MIC): 2 µg/mL
MIC (Acinetobacter pittii, isolate NO-Ab59, Acinetobacter pittii, read-out: MIC): 2 µg/mL
MIC (Acinetobacter pittii, isolate NO-Ab66, Acinetobacter pittii, read-out: MIC): 8 µg/mL
MIC (Acinetobacter pittii, isolate NO-Ab73, Acinetobacter pittii, read-out: MIC): 2 µg/mL
MIC (Acinetobacter pittii, isolate NO-Ab75, Acinetobacter pittii, read-out: MIC): 4 µg/mL
MIC (Acinetobacter pittii, isolate NO-Ab78, Acinetobacter pittii, read-out: MIC): 1 µg/mL
MIC (Acinetobacter pittii, isolate NO-Ab82, Acinetobacter pittii, read-out: MIC): 1 µg/mL
MIC (Acinetobacter pittii, isolate NO-Ab89, Acinetobacter pittii, read-out: MIC): 1 µg/mL
MIC (Acinetobacter pittii, isolate NO-Ab90, Acinetobacter pittii, read-out: MIC): 1 µg/mL
MIC (Acinetobacter pittii, isolate NO-Ab97, Acinetobacter pittii, read-out: MIC): 4 µg/mL
MIC (Acinetobacter pittii, isolate NO-Ab105, Acinetobacter pittii, read-out: MIC): 1 µg/mL
MIC (Acinetobacter pittii, isolate NO-Ab106, Acinetobacter pittii, read-out: MIC): 1 µg/mL
MIC (Acinetobacter pittii, isolate NO-Ab107, Acinetobacter pittii, read-out: MIC): 0.5 µg/mL
MIC (Acinetobacter pittii, isolate NO-Ab111, Acinetobacter pittii, read-out: MIC): 1 µg/mL
MIC (Acinetobacter pittii, isolate NO-Ab113, Acinetobacter pittii, read-out: MIC): 2 µg/mL
MIC (Acinetobacter pittii, isolate NO-Ab118, Acinetobacter pittii, read-out: MIC): 2 µg/mL
MIC (Acinetobacter pittii, isolate NO-Ab135, Acinetobacter pittii, read-out: MIC): 1 µg/mL
MIC (Acinetobacter pittii, isolate NO-Ab145, Acinetobacter pittii, read-out: MIC): 2 µg/mL
MIC (Acinetobacter pittii, isolate NO-Ab151, Acinetobacter pittii, read-out: MIC): 2 µg/mL
MIC (Acinetobacter pittii, isolate NO-Ab154, Acinetobacter pittii, read-out: MIC): 1 µg/mL
MIC (Acinetobacter pittii, isolate NO-Ab157, Acinetobacter pittii, read-out: MIC): 4 µg/mL
MIC (Acinetobacter pittii, isolate NO-Ab162, Acinetobacter pittii, read-out: MIC): 8 µg/mL
MIC (Acinetobacter pittii, isolate NO-Ab164, Acinetobacter pittii, read-out: MIC): 1 µg/mL
MIC (Acinetobacter pittii, isolate NO-Ab178, Acinetobacter pittii, read-out: MIC): 4 µg/mL
MIC (Acinetobacter pittii, isolate NO-Ab197, Acinetobacter pittii, read-out: MIC): 2 µg/mL
MIC (Acinetobacter proteolyticus, isolate NO-Ab99, Acinetobacter proteolyticus, read-out: MIC): 4 µg/mL
MIC (Acinetobacter proteolyticus, isolate NO-Ab102, Acinetobacter proteolyticus, read-out: MIC): 4 µg/mL
MIC (Acinetobacter proteolyticus, isolate NO-Ab210, Acinetobacter proteolyticus, read-out: MIC): 1 µg/mL
MIC (Acinetobacter radioresistens, isolate NO-Ab175, Acinetobacter radioresistens, read-out: MIC): 0.25 µg/mL
MIC (Acinetobacter radioresistens, isolate NO-Ab215, Acinetobacter radioresistens, read-out: MIC): 0.12 µg/mL
MIC (Acinetobacter ursingii, isolate NO-Ab3, Acinetobacter ursingii, read-out: MIC): 0.25 µg/mL
MIC (Acinetobacter ursingii, isolate NO-Ab64, Acinetobacter ursingii, read-out: MIC): 1 µg/mL
MIC (Acinetobacter ursingii, isolate NO-Ab87, Acinetobacter ursingii, read-out: MIC): 0.25 µg/mL
MIC (Acinetobacter ursingii, isolate NO-Ab103, Acinetobacter ursingii, read-out: MIC): 2 µg/mL
MIC (Acinetobacter ursingii, isolate NO-Ab119, Acinetobacter ursingii, read-out: MIC): 8 µg/mL
MIC (Acinetobacter ursingii, isolate NO-Ab120, Acinetobacter ursingii, read-out: MIC): 4 µg/mL
MIC (Acinetobacter ursingii, isolate NO-Ab123, Acinetobacter ursingii, read-out: MIC): 2 µg/mL
MIC (Acinetobacter ursingii, isolate NO-Ab126, Acinetobacter ursingii, read-out: MIC): 4 µg/mL
MIC (Acinetobacter ursingii, isolate NO-Ab147, Acinetobacter ursingii, read-out: MIC): 2 µg/mL
MIC (Acinetobacter ursingii, isolate NO-Ab155, Acinetobacter ursingii, read-out: MIC): 4 µg/mL
MIC (Acinetobacter ursingii, isolate NO-Ab165, Acinetobacter ursingii, read-out: MIC): 2 µg/mL
MIC (Acinetobacter ursingii, isolate NO-Ab166, Acinetobacter ursingii, read-out: MIC): 1 µg/mL
MIC (Acinetobacter ursingii, isolate NO-Ab214, Acinetobacter ursingii, read-out: MIC): 4 µg/mL
MIC (Acinetobacter ursingii, isolate NO-Ab221, Acinetobacter ursingii, read-out: MIC): 4 µg/mL
MIC (Acinetobacter ursingii, isolate NO-Ab222, Acinetobacter ursingii, read-out: MIC): 1 µg/mL
MIC (Acinetobacter, isolate NO-Ab146, Acinetobacter iwoffii, read-out: MIC): 2 µg/mL
MIC (Acinetobacter, isolate NO-Ab159, Acinetobacter iwoffii, read-out: MIC): 0.5 µg/mL
MIC50 [1]: 2 µg/mL
MIC90 [1]: 4 µg/mL
MIC distribution 0.25 [2]: 4.6
MIC distribution 0.5 [2]: 12.6
MIC distribution 1 [2]: 41.4
MIC distribution 2 [2]: 73.6
MIC distribution 4 [2]: 96.6
MIC distribution 8 [2]: 98.9
MIC distribution 16 [2]: 100
MIC distribution 32 [2]: 100
MIC distribution ≤0.06 [2]: 0
